A short description of one series: in vivo. To be noted: rat, in vivo, po, 10 mg/kg.
The next series relates to plasma hormone levels. Put plainly: Pharmacodynamic determination in monkeys: plasma aldosterone and cortisol after ACTH stimulation. In kind it is in vivo, cynomolgus monkeys. Particulars: P.O. The protocol:
Cynomolgus monkeys were used as test animals to evaluate the pharmacodynamics of multiple compounds of the present disclosure on plasma hormone levels following gavage administration (P.O.) at various doses such as 0.1 mpk (and others, e.g., 0.03 mpk, 0.1 mpk, and 0.3 mpk).
Male cynomolgus monkeys, Suzhou Xishan Zhongke Laboratory Animal Co., Ltd. Animal production license number: SCXK (Su) 2023-0001, animal use license number: SYXK (Su) 2020-0017.
Male cynomolgus monkeys were performed gavage administration (P.O.) at doses set as: 0 mpk (vehicle group, i.e., Veh group), 0.03 mpk, 0.1 mpk, and 0.3 mpk. In each group, 15 µg/kg ACTH was injected intramuscularly 1 hour after dosing. Continuous venous blood samples were collected from each group at 1 hour before administration and at multiple time points after administration. Blood samples were collected, and plasma aldosterone and its precursors, as well as plasma corticosterone and its precursors, at multiple time points were analyzed using LC/MS methods.
Venous blood samples were collected at 1-2 hours before gavage administration and at multiple time points after intramuscular injection of ACTH (adrenocorticotropic hormone). The samples were placed in EDTA-K2 tubes, centrifuged at 4 °C, 2600 g for 10 minutes to separate plasma, which was then stored at -80 °C.
• HPLC: Waters ACQUITY UPLC I-Class PLUS; • Mass spectrometry conditions: Triple Quad™ 7500 (Serial No. FA224362212) mass spectrometer; • Chromatographic column: phenomenex kinetex 2.6µm C8 100A 50 × 4.60 mm; • Mobile phase: mobile phase A was 0.5 mM ammonium fluoride solution containing 0.1% formic acid; mobile phase B was MeOH.
The data in Figs. 1, 2, 3, 4, and 5 are analyzed based on PD changes at 30 minutes after ACTH stimulation. The percentage of PD relative to the control group (Veh group) at 30 minutes after ACTH stimulation serves as the main basis for pharmacodynamic evaluation, calculated according to the following formula: [formula] where PD refers to aldosterone or cortisol. Table 8 Pharmacodynamic Evaluation of Example Compound C44 in Monkeys

Series [1] in a line: Pharmacokinetic determination in monkeys after gavage administration (P.O.). To be noted: cynomolgus monkey, po, 1 mg/kg, plasma. The series is classed as in vivo, Cynomolgus monkeys (Macaca fascicularis). The protocol: Cynomolgus monkeys (Macaca fascicularis) were used as test animals to study the pharmacokinetic behavior of the compounds of the present disclosure in plasma following gavage administration (P.O.). Plasma samples were collected at specific time points, compound concentrations in plasma were detected by LC-MS/MS, and pharmacokinetic parameters were calculated to reflect the pharmacokinetics in cynomolgus monkeys.
Cynomolgus monkeys, male, Ankaiyibo (Zhanjiang) Biotechnology Co., Ltd.
After administration to cynomolgus monkeys, venous blood samples of 0.3 mL were collected at 0.25, 0.5, 1, 2, 4, 8, and 24 hours and placed in EDTA-K2 test tubes. Plasma was separated by centrifugation at 4 °C, 4000 g for 5 minutes and stored at -80 °C.
• 1) 50 µL of plasma sample was precipitated by adding 200 µL of acetonitrile, vortex mixed, and centrifuged for 15 minutes. • 2) The processed supernatant was diluted with water and analyzed by LC/MS/MS to determine the concentration of the test compound.
Pharmacokinetic parameters were calculated using WinNonlin 8.3. Cmax represents the maximum plasma concentration, T1/2 represents the terminal elimination half-life, MRTInf represents the mean residence time, and AUC represents the area under the plasma concentration-time curve. Table 6 Pharmacokinetic Parameters of the Compounds of the Present Disclosure in Monkeys

Series [2] is described as follows: Pharmacokinetic determination in mice after gavage administration (P.O.). The series is classed as in vivo. To be noted: male, CD-1, mouse, po, 10 mg/kg, plasma.
Setting [3] is: 0.03 mpk, 30min after ACTH stimulation, plasma.
The mark [4] stands for this setting: 0.1 mpk, 30min after ACTH stimulation, plasma.
[5] abbreviates: 0.3 mpk, 30min after ACTH stimulation, plasma.

The source of these data is patent EP4806899A1, “FUSED RING DERIVATIVE, PREPARATION METHOD THEREFOR AND USE THEREOF IN MEDICINE” (Shanghai Qilu Pharmaceutical Research and Development …, priority 2023, dated 2025).

In general, Cmax refers to the highest concentration seen after dosing. What is called MRT inf is a mean duration of stay, worked out from the concentration-time curve. As a reminder, the half-life is the time needed for the level to fall by half in the phase considered. A lower half-life goes with fast loss.

Protocol for in vivo: Mice and rats were used as test animals to study the pharmacokinetic behavior of the compounds of the present disclosure in plasma following gavage administration (P.O.). Plasma samples were collected at specific time points, compound concentrations in plasma were detected by LC-MS/MS, and pharmacokinetic parameters were calculated to evaluate the pharmacokinetics.
• Mice, CD-1, male, Zhejiang Vital River Laboratory Animal Technology Co., Ltd. • Rats, Sprague-Dawley, male, Zhejiang Vital River Laboratory Animal Technology Co., Ltd., Shanghai Jihui Experimental Animal Breeding Co., Ltd.
After administration to mice and rats, venous blood samples of 0.03 mL and 0.2 mL, respectively, were collected at 0.0833 (IV), 0.25, 0.5, 1, 2, 4, 8, and 24 hours and placed in EDTA-K2 test tubes. Plasma was separated by centrifugation at 4 °C, 4000 g for 5 minutes and stored at -80 °C.
Pharmacokinetic parameters were calculated using WinNonlin 8.3. […] Cmax represents the maximum plasma concentration, T1/2 represents the terminal elimination half-life, MRTInf represents the mean residence time, and AUC represents the area under the plasma concentration-time curve.

On to `CCC(=O)N[C@@H]1CCOc2c(-c3ccc4c(c3)CCC(=O)N4C)cncc21` [Compound A02-P2], for which the AUC(0-t) at 24 h amounted to 190 µM·h in “in vivo” and 12.8 µM·h in series [1] (in vivo, read-out: AUC0-24). The highest concentration (Cmax) came to 22.7 µM in the series “in vivo” and 1.6 µM in series [1] (in vivo). The MRT inf came to 5.3 h in the series “in vivo” and 8.77 h in series [1] (in vivo). The half-life was 3.47 h in the series “in vivo” and 7.44 h in series [1] (in vivo). Besides, the Cortisol with plasma hormone levels (0.03 mpk, 0h, plasma) was 269.0 ng/mL; with plasma hormone levels (setting [3]) it was 384.0 ng/mL; in the series with plasma hormone levels (0.1 mpk, 0h, plasma), 436.0 ng/mL; in the series with plasma hormone levels (setting [4]), 599.0 ng/mL; in the series with plasma hormone levels (0.3 mpk, 0h, plasma), 283.0 ng/mL; in the series with plasma hormone levels (setting [5]), 387.0 ng/mL. The Aldosterone stood at 0.13 ng/mL with plasma hormone levels (0.03 mpk, 0h, plasma (Table 12)); 0.27 ng/mL with plasma hormone levels (0.03 mpk, 30min after ACTH stimulation, plasma (Table 12)); 0.40 ng/mL with plasma hormone levels (0.1 mpk, 0h, plasma (Table 12)); 0.20 ng/mL in the series on plasma hormone levels (0.1 mpk, 30min after ACTH stimulation, plasma (Table 12)); 0.13 ng/mL in the series on plasma hormone levels (0.3 mpk (dose printed 03), 0h, plasma (Table 12)); 0.05 ng/mL in the series on plasma hormone levels (0.3 mpk (dose printed 03), 30min after ACTH stimulation, plasma (Table 12)).

As for `[2H]C([2H])([2H])OC(=O)N[C@@H]1CCOc2c(-c3cc(F)c4c(ccc(=O)n4C)c3)cncc21` [Compound A50], the Aldosterone came out at 0.12 ng/mL in the series with plasma hormone levels (0.03 mpk, 0h, plasma); 0.22 ng/mL with plasma hormone levels (setting [3]); 0.49 ng/mL in the series with plasma hormone levels (0.1 mpk, 0h, plasma); 0.12 ng/mL in the series on plasma hormone levels (setting [4]); 0.12 ng/mL with plasma hormone levels (0.3 mpk, 0h, plasma); 0.06 ng/mL in the series with plasma hormone levels (setting [5]). The Cortisol is given as 358.3 ng/mL in the series with plasma hormone levels (0.03 mpk, 0h, plasma); 430.0 ng/mL with plasma hormone levels (setting [3]); 282.0 ng/mL in the series on plasma hormone levels (0.1 mpk, 0h, plasma); 386.0 ng/mL with plasma hormone levels (setting [4]); 304.7 ng/mL in the series with plasma hormone levels (0.3 mpk, 0h, plasma); 369.7 ng/mL in the series with plasma hormone levels (setting [5]). Besides, the Cmax in series [2] was determined as 9.07 µM; in series [1] (male), 1.14 µM. Also, the AUC(0-t) came out at 136 µM·h in series [2] (read-out: AUC0-24) and 13.5 µM·h in series [1] (male, read-out: AUC0-24). Besides, in series [1] (male), the MRT inf came out at 13 h. Besides, the half-life in series [1] (male) is 10.5 h.
